The target of one assay is rat mGlu2 receptor (Rattus norvegicus (Rat), UniProt P31421). Briefly: mGlu2 in vitro GIRK thallium flux assay. The assay is classed as cell-based. Particulars: NAM, EC80 glutamate, HEK-293 GIRK cells. In short, it runs like this: (§1)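 Cells expressing rat mGlu2 or mGlu3 with GIRK, plated overnight at 37 °C. Test compounds (0.3% DMSO, 10-point 1:3 series) preincubated 2.5 or 60 min, then thallium buffer plus EC80 glutamate added. Fluorescence slope 5–15 s after addition, normalised to vehicle and maximal agonist, fitted by four-parameter logistic.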
rat mGlu2 receptor, sequence (P31421 19-872): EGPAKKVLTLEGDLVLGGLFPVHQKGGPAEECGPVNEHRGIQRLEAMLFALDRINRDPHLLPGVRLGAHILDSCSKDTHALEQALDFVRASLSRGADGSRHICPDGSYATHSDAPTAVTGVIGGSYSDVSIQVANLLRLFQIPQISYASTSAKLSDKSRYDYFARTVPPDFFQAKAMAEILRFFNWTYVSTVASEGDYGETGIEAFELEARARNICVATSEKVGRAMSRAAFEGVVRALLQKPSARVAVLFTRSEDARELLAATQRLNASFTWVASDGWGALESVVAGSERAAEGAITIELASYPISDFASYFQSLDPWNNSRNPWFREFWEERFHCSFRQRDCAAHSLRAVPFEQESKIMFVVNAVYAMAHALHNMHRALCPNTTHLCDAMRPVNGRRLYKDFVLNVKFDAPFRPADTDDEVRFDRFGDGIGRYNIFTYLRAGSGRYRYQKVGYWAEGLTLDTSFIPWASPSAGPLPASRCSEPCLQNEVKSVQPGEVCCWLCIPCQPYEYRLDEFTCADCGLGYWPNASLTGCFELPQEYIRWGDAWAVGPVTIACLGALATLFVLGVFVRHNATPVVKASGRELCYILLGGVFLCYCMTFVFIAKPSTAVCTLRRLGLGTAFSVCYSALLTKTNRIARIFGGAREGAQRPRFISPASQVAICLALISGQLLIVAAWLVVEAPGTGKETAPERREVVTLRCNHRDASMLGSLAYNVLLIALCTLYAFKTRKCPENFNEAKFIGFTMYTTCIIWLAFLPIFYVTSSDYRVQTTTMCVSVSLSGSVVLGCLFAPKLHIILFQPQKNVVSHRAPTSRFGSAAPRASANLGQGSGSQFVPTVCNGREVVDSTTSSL

The target of a further assay is rat mGlu3 receptor (Rattus norvegicus (Rat), UniProt P31422). Briefly: mGlu3 in vitro GIRK thallium flux assay. The assay is classed as cell-based. The note with it: NAM; 2.5 min compound incubation; EC80 glutamate; HEK-293 GIRK cells. The procedure, abridged:
as §1

The mark [1] stands for this setting: 2.5 min compound incubation, read-out: mGlu2 EC50 (μM) (2.5 min).
[2] abbreviates: read-out: mGlu2 EC50 (μM) (60 min), 60 min compound incubation.
The mark [3] stands for this setting: mGlu2 EC50 (μM) (60 min), 60 min compound incubation.

Read-outs that look alike come from different tables or passages of the source.

rat mGlu3 receptor, sequence (P31422 23-879): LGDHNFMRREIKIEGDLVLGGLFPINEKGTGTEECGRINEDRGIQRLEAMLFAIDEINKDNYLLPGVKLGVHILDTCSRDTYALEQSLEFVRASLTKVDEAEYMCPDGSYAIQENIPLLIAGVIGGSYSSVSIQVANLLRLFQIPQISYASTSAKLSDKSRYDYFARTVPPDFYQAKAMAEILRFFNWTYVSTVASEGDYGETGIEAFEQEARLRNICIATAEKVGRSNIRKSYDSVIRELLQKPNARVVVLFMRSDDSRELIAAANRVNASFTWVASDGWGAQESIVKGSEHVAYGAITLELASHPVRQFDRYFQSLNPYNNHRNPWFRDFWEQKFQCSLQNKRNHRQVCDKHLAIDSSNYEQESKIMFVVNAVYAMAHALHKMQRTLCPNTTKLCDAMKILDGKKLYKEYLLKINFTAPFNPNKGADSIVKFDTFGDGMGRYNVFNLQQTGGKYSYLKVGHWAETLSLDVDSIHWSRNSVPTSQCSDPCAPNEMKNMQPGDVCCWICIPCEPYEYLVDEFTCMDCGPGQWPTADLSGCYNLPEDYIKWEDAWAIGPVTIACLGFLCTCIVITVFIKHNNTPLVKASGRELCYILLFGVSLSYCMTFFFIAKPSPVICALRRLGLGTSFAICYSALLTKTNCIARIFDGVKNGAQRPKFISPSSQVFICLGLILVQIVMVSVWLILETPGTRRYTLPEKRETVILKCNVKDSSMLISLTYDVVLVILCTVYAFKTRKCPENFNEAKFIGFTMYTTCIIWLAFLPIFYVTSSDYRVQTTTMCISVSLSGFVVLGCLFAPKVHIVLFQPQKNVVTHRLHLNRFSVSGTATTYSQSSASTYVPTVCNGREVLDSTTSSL

A word on the EC50: it is the concentration giving half of the maximal effect. As to `O=C(O)c1ccc(-c2cccc(-c3nc(-c4ccc(C(F)(F)F)nc4)cc(C(F)(F)F)n3)c2)c(Cl)c1` [Example 78, 2-Chloro-3′-(4-(trifluoromethyl)-6-(6-(trifluoromethyl)pyridin-3-yl)pyrimidin-2-yl)biphenyl-4-carboxylic Acid], the values for the concentration for a half-maximal effect (EC50) on rat mGlu2 receptor (setting [1]), on rat mGlu2 receptor (setting [2]) and at rat mGlu3 receptor were 3.49 µM, 1.18 µM and 6.32 µM, respectively.
In the case of `O=C(O)c1ccccc1-c1cccc(-c2nc(-c3ccccc3)n(-c3ccccc3)n2)c1` [Example 61, 3′-(1,5-Diphenyl-1H-1,2,4-triazol-3-yl)-[1,1′-biphenyl]-2-carboxylic Acid], the EC50 is over 30 µM on rat mGlu2 receptor (setting [1]), over 30 µM at rat mGlu2 receptor (setting [2]) and over 10 µM at rat mGlu3 receptor.
For the compound `O=C(O)c1cc(-c2cccc(-c3csc(-c4ccoc4)n3)c2)ccc1F` [Example 4, 4-Fluoro-3′-(2-(furan-3-yl)thiazol-4-yl)biphenyl-3-carboxylic Acid], the concentration for a half-maximal effect (EC50) was 2.26 µM on rat mGlu2 receptor (setting [1]), 2.5 µM on rat mGlu2 receptor (setting [3]) and over 10 µM on rat mGlu3 receptor.
The corresponding values for `Cc1cc2c(cc1C(F)(F)F)NC(=O)CC(c1cccc(CCCO)c1)N2` (racemic) [Example 154, 4-(3-(3-Hydroxypropyl)phenyl)-7-methyl-8-(trifluoromethyl)-4,5-dihydro-1H-benzo[b][1,4]diazepin-2(3H)-one] are over 10 µM, 4.43 µM and over 10 µM.
Taken in the same sequence, the figures for `O=C(O)c1cc(-c2cccc(-c3csc(-c4cccs4)n3)c2)ccc1F` [Example 15, 4-Fluoro-3′-(2-(thiophen-2-yl)thiazol-4-yl)biphenyl-3-carboxylic Acid] were 1.5 µM, 0.93 µM and over 10 µM.
The corresponding values for `COc1ccc(-c2nc(-c3cccc(-c4cccc(C(=O)O)c4)c3)cs2)cc1` [Example 31, 3-{3-[2-(4-Methoxyphenyl)-1,3-thiazol-4-yl]phenyl}benzoic acid] are 1.23 µM, 0.67 µM and 3.09 µM.
In the case of `O=C(O)c1cccc(-c2cccc(-c3nc(-c4ccc(C(F)(F)F)nc4)n(-c4ccccc4)n3)c2)c1` [Example 58, 3′-(1-Phenyl-5-(6-(trifluoromethyl)pyridin-3-yl)-1H-1,2,4-triazol-3-yl)-[1,1′-biphenyl]-3-carboxylic Acid], the concentration for a half-maximal effect (EC50) was over 10 µM at rat mGlu2 receptor (setting [1]), over 10 µM at rat mGlu2 receptor (setting [3]) and 5.56 µM on rat mGlu3 receptor.
On to `O=C(O)c1cc(-c2csc(-c3ccccc3)n2)ccc1F` [Example 27, 2-Fluoro-5-(2-phenylthiazol-4-yl)benzoic acid], for which the concentration for a half-maximal effect (EC50) on rat mGlu2 receptor (setting [1]) was over 10 µM; on rat mGlu2 receptor (setting [3]), over 30 µM; on rat mGlu3 receptor it was over 30 µM.
On to `O=C(O)c1cc(-c2cccc(Sc3nc(-c4ccco4)cc(C(F)(F)F)n3)c2)ccc1F` [Example 129, 4-Fluoro-3′-(4-(furan-2-yl)-6-(trifluoromethyl)pyrimidin-2-ylthio)biphenyl-3-carboxylic Acid], for which the EC50 on rat mGlu2 receptor (setting [1]) is over 10 µM; on rat mGlu2 receptor (setting [2]), 3.25 µM; on rat mGlu3 receptor it was over 10 µM.
Regarding `Cc1cc2c(cc1C(F)(F)F)NC(=O)CC(c1cccc(Oc3cccc(Br)c3)c1)=N2` [Example 145, 4-(3-(3-Bromophenoxy)phenyl)-7-methyl-8-(trifluoromethyl)-1H-benzo[b][1,4]diazepin-2(3H)-one], the EC50 at rat mGlu2 receptor (setting [1]), at rat mGlu2 receptor (setting [2]) and at rat mGlu3 receptor was over 10 µM in each case.
As to `O=C(O)c1cc(-c2ccc(-c3csc(-c4ccccc4)n3)s2)ccc1F` [Example 10, 2-Fluoro-5-(5-(2-phenylthiazol-4-yl)thiophen-2-yl)benzoic acid], the EC50 on rat mGlu2 receptor (setting [1]), at rat mGlu2 receptor (setting [3]) and on rat mGlu3 receptor was over 10 µM each time.
Take `O=C1CC(c2ccnc(Cl)c2)=Nc2ccc(-c3ccccc3F)cc2N1` [Example 187, 4-(2-Chloropyridin-4-yl)-8-(2-fluorophenyl)-1,3-dihydro-2H-benzo[b][1,4]diazepin-2-one]: the EC50 at rat mGlu2 receptor (setting [1]) is 0.98 µM; on rat mGlu3 receptor, 0.71 µM.
For `O=C(O)c1cc(-c2cccc(-c3csc(-c4ccccc4)n3)c2)ccc1Cl` [Example 24, 4-Chloro-3′-(2-phenylthiazol-4-yl)biphenyl-3-carboxylic Acid], the EC50 was 0.57 µM at rat mGlu2 receptor (setting [1]), 0.8 µM at rat mGlu2 receptor (setting [3]) and 0.79 µM at rat mGlu3 receptor.
As to `O=C(O)c1cc(-c2cccc(Oc3nc(-c4ccco4)cc(C(F)(F)F)n3)c2)ccc1F` [Example 128, 4-Fluoro-3′-(4-(furan-2-yl)-6-(trifluoromethyl)pyrimidin-2-yloxy)biphenyl-3-carboxylic Acid], the half-maximal effective concentration (EC50) on rat mGlu2 receptor (setting [1]), on rat mGlu2 receptor (setting [2]) and on rat mGlu3 receptor was over 30 µM each time.
For `Cc1cc2c(cc1C(F)(F)F)NC(=O)CC(c1cccc(Oc3cc(F)cc(F)c3)c1)=N2` [Example 146, 4-(3-(3,5-difluorophenoxy)phenyl)-7-methyl-8-(trifluoromethyl)-1H-benzo[b][1,4]diazepin-2(3H)-one], the EC50 at rat mGlu2 receptor (setting [1]), on rat mGlu2 receptor (setting [2]) and on rat mGlu3 receptor was over 10 µM in each case.
For `O=C(O)c1cc(-c2cccc(-c3csc(-c4ccccc4)n3)c2)cc([N+](=O)[O-])c1` [Example 13, 5-Nitro-3′-(2-phenylthiazol-4-yl)biphenyl-3-carboxylic Acid], the EC50 on rat mGlu2 receptor (setting [1]), at rat mGlu2 receptor (setting [3]) and on rat mGlu3 receptor was over 10 µM throughout.
`Nc1cccc(-c2cn(-c3nc(-c4ccc(C(F)(F)F)nc4)cc(C(F)(F)F)n3)cn2)c1` [Example 126, 3-(1-(4-(Trifluoromethyl)-6-(6-(trifluoromethyl)pyridin-3-yl)pyrimidin-2-yl)-1H-imidazol-4-yl)aniline]: the EC50 at rat mGlu2 receptor (setting [1]) was over 30 µM; on rat mGlu2 receptor (setting [2]), over 10 µM; at rat mGlu3 receptor, over 30 µM.
In the case of `O=C(O)c1ccccc1-c1cccc(-c2nc(-c3ccc(C(F)(F)F)nc3)cc(C(F)(F)F)n2)c1` [Example 72, 3′-(4-(Trifluoromethyl)-6-(6-(trifluoromethyl)pyridin-3-yl)pyrimidin-2-yl)biphenyl-2-carboxylic Acid], the EC50 at rat mGlu2 receptor (setting [1]), at rat mGlu2 receptor (setting [2]) and on rat mGlu3 receptor was over 10 µM in each case.
Consider `O=C(O)c1cc(-c2cccc(-c3nc(-c4ccc(Cl)cc4)cc(C(F)(F)F)n3)c2)ccc1F` [Example 98, 3′-(4-(4-Chlorophenyl)-6-(trifluoromethyl)pyrimidin-2-yl)-4-fluorobiphenyl-3-carboxylic Acid], for which the figures for the EC50 on rat mGlu2 receptor (setting [1]), on rat mGlu2 receptor (setting [2]) and on rat mGlu3 receptor were 2.87 µM, 0.35 µM and 2.47 µM, respectively.
For `O=C(O)c1cc(-c2cccc(-c3nc(-c4ccc(C(F)(F)F)nc4)cc(C(F)(F)F)n3)c2)cc([N+](=O)[O-])c1` [Example 75, 5-Nitro-3′-(4-(trifluoromethyl)-6-(6-(trifluoromethyl)pyridin-3-yl)pyrimidin-2-yl)biphenyl-3-carboxylic Acid], the EC50 at rat mGlu2 receptor (setting [1]) was 1.27 µM; at rat mGlu2 receptor (setting [2]) it was 0.5 µM; at rat mGlu3 receptor, over 10 µM.
Turning to `NS(=O)(=O)c1cccc(-c2cn(-c3nc(-c4ccc(C(F)(F)F)nc4)cc(C(F)(F)F)n3)cn2)c1` [Example 125, 3-(1-(4-(Trifluoromethyl)-6-(6-(trifluoromethyl)pyridin-3-yl)pyrimidin-2-yl)-1H-imidazol-4-yl)benzenesulfonamide], the EC50 at rat mGlu2 receptor (setting [1]) was over 10 µM; on rat mGlu2 receptor (setting [2]) it was over 10 µM; on rat mGlu3 receptor it was over 30 µM.
With `O=C(O)c1ccc(F)c(-c2cccc(-c3nsc(-c4ccccc4)n3)c2)c1` [Example 41, 6-Fluoro-3′-(5-phenyl-1,2,4-thiadiazol-3-yl)biphenyl-3-carboxylic Acid], the EC50 on rat mGlu2 receptor (setting [1]) was 0.89 µM; at rat mGlu2 receptor (setting [3]), 0.11 µM; on rat mGlu3 receptor it was over 10 µM.
As to `O=C(O)c1cccc(-c2cccc(-c3cn(-c4ccccc4)c(-c4ccccc4)n3)c2)c1` [Example 67, 3′-(1,2-Diphenyl-1H-imidazol-4-yl)-[1,1′-biphenyl]-3-carboxylic Acid], the EC50 on rat mGlu2 receptor (setting [1]), on rat mGlu2 receptor (setting [2]) and on rat mGlu3 receptor was over 10 µM in each case.
In the case of `O=C1CC(c2ccnc(Cl)c2)=Nc2ccc(C(F)(F)F)cc2N1` [Example 189, 4-(2-Chloropyridin-4-yl)-8-(trifluoromethyl)-1,3-dihydro-2H-benzo[b][1,4]diazepin-2-one], the EC50 came out at 0.29 µM at rat mGlu2 receptor (setting [1]), 0.08 µM at rat mGlu2 receptor (setting [2]) and 0.28 µM at rat mGlu3 receptor.
For the compound `O=C(O)c1ccccc1-c1cccc(-c2csc(-c3ccccc3)n2)c1` [Example 25, 3′-(2-Phenylthiazol-4-yl)biphenyl-2-carboxylic Acid], the EC50 at rat mGlu2 receptor (setting [1]), at rat mGlu2 receptor (setting [2]) and at rat mGlu3 receptor was over 10 µM in each case.
Turning to `O=C(O)c1cccc(-c2cccc(-c3nc(-c4ccoc4)n(-c4ccccc4)n3)c2)c1` [Example 59, 3′-(5-(Furan-3-yl)-1-phenyl-1H-1,2,4-triazol-3-yl)-[1,1′-biphenyl]-3-carboxylic acid], the 50% effective concentration (EC50) on rat mGlu2 receptor (setting [1]) was over 10 µM; on rat mGlu2 receptor (setting [3]), 3.78 µM; on rat mGlu3 receptor it was over 10 µM.
Consider `O=C(O)c1cccc(-c2cccc(-c3nc(-c4ccccc4)n(-c4ccccc4)n3)c2)c1` [Example 49A, 3′-(1,5-Diphenyl-1H-1,2,4-triazol-3-yl)-[1,1′-biphenyl]-3-carboxylic Acid], for which the EC50 on rat mGlu2 receptor (setting [1]) was over 10 µM; at rat mGlu2 receptor (setting [3]), over 10 µM; on rat mGlu3 receptor, 1.36 µM.
Consider `CC(C)n1nc(-c2cccc(-c3cccc(C(=O)O)c3)c2)nc1-c1ccccc1` [Example 64, 3′-(1-Isopropyl-5-phenyl-1H-1,2,4-triazol-3-yl)-[1,1′-biphenyl]-3-carboxylic acid], for which the EC50 on rat mGlu2 receptor (setting [1]) is over 10 µM; at rat mGlu2 receptor (setting [3]) it was over 30 µM; on rat mGlu3 receptor it was over 10 µM.

The values are drawn from US9969726B2, “Metabotropic glutamate receptor negative allosteric modulators (NAMS) and uses thereof” (Sanford-Burnham Medical Research Institute, priority 2014, dated 2018).
